Legend:
PDE5 = target: T1, PDE5 (Bos taurus, UniProt Q28156); assay: Selectivity: inhibition of PDE5, radioenzymatic phosphodiesterase assay; type: biochemical, bovine; details: 10 μM test compound; vascular smooth muscle; read-out: PDE5 percentage inhibition at 10 μM
T1 construct: localize the different enzymes PDE1, PDE3, PDE4 and PDE5 which were aliquoted and frozen; from tissue; host or cells: bovine aortic media (vascular smooth muscle)
Method: A 3 g segment of bovine aortic media cut into pieces with scissors was homogenized with an ultra-turrax then a potter glass/glass homogenizer in 7 volumes by weight of buffer A containing a protease inhibitor cocktail (20 mM Tris-HCl, 0.25 M saccharose, 2 mM magnesium acetate, 1 mM dithiothreitol, 5 mM EGTA, 2000 U/ml aprotinin, 10 mg/l leupeptin and 10 mg/l soya trypsic inhibitor). The homogenizate was centrifuged at 105,000 g for 1 hour. The supernatant was loaded on a DEAE-Sephacel column (15 x 1.6 cm) pre-equilibrated with buffer B (buffer A without the saccharose, EGTA and protease inhibitors). The column was washed until there was no detectable absorption at 280 nm, then eluted with a linear gradient of NaCl (0-0.5 M) in buffer B. 3-ml fractions were collected and enzyme activity was determined under the conditions described hereinbelow to localize the different enzymes PDE1, PDE3, PDE4 and PDE5 which were aliquoted and frozen at −80° C. (Lugnier et al., Biochem. Phamacol., 1986, 35: 1746-1751). PDE2 was prepared from bovine endothelial cells by the same methods (Lugnier and Schini, Biochem. Pharmacol., 1990, 39: 75-84).
Cyclic nucleotide phosphodiesterase activity was determined by a radioenzymatic method using tritium-labelled cyclic GMP or AMP (1 μM) as substrate (Lugnier et al., 1986). ^3H-labelled adenosine or guanosine monophosphate formed by hydrolysis of the radiolabelled cyclic nucleotide was then converted to ^3H-labelled adenosine or guanosine in a second reaction with […] in excess. The nucleoside formed was separated from the nucleotides by anion exchange chromatography. Nucleoside radioactivity was determined by liquid scintillation counting. Enzymatic incubations were carried out under conditions allowing no more than 15% hydrolysis of the substrate; each point was performed in duplicate.
The activity of the compounds was evaluated on other phosphodiesterase isoforms, particularly basal state or calmodulin-activated PDEl from vascular smooth muscle, PDE3, PDE4 and PDE5 from vascular smooth muscle.
The results obtained are presented in Tables 1 and 2 hereinbelow and are expressed as the percentage inhibition of enzymatic activity produced by […] of the test compound.

PDE2 = target: T2, PDE2 (Bos taurus, UniProt P14099); assay: Inhibition of PDE2, radioenzymatic phosphodiesterase assay; type: biochemical, bovine
T2 construct: PDE2 was prepared from bovine endothelial cells by the same methods; endogenous in cells; host or cells: bovine endothelial cells
T2 sequence (P14099 1-921): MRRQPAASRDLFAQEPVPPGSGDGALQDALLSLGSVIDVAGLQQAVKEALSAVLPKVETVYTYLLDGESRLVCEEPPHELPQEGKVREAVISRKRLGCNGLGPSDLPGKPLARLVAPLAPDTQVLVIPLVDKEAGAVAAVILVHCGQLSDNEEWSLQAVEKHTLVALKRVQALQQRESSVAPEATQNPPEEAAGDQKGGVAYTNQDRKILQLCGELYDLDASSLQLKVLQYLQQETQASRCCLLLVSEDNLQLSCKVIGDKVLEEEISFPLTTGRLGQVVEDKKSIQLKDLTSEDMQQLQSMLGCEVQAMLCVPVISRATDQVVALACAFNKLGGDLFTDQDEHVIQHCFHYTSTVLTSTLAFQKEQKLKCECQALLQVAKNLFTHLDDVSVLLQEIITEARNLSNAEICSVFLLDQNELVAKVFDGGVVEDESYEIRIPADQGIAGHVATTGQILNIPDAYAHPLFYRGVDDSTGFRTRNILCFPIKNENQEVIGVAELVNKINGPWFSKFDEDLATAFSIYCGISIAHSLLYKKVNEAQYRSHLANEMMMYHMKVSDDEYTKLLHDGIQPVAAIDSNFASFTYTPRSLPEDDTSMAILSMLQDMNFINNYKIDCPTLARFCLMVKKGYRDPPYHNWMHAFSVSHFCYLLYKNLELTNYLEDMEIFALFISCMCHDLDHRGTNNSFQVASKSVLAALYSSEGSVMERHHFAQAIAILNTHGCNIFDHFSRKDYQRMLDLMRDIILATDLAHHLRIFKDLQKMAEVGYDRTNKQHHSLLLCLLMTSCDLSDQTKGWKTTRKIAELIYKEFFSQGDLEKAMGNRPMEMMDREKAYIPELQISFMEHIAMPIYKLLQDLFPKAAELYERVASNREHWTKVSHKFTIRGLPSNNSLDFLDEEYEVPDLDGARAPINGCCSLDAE

mice [1] = assay: Light/dark test; type: in vivo, Balb/c or Swiss mice; details: mice, 0.3, 3 and 30 mg/kg orally 1 hour before the test, versus controls (p<0.01)
Description: This light/dark test is based on the natural tendency of rodents to prefer a dark environment and thereby evaluates the emotional responses of the animals in a situation of bright light. This procedure is suitable for assessing the state of anxiety elicited by anxiety stimuli (Lister's group, 1990). Mice placed in the apparatus, while showing a preference for the dark zone, nonetheless explore the light zone.
Ten to eleven-week old Balb/c or Swiss mice were used. Mice were randomly divided into a control group (treated with the vehicle) and other groups treated with the test compounds.
The test apparatus consisted of two PVC compartments (20×20×14 cm). with a plexiglass lid. One of the compartments was dark. A 100W light bulb was placed 15 cm above the other compartment, emitting the only light in the room (approximately 4400 lux). An opaque plastic tunnel separated the light and dark compartments.
The animal was placed in the light compartment with its head pointed towards the tunnel. The time spent in the light compartment and the number of entries into the light compartment were recorded for 5 minutes after the first entry into the dark zone. The test compound or the control treatment were administered orally 1 hour before the test.
N=10; ** p<0.01; **** p<0.001 (Dunnett test versus control).

mice [2] = assay: Swim test; type: in vivo, Wistar rats or Swiss mice; details: 3 and 30 mg/kg, 20 minutes before the test, versus control group and 0.3 mg/kg group
Method: This test is based on the induction of alternative behavior in rodents subjected to an acute stress. In this model, the rat or mouse placed in a water-filled cylinder adopts a particular state of immobility. Onset of said immobility is delayed by antidepressants administered acutely or in repeated doses.
Wistar rats or Swiss mice were used. Animals were isolated for one week with a reverse light/dark cycle, then placed in the water-filled cylinder for 6 minutes. The total immobility time was recorded during the last 4 minutes. The treatment was administered 20 minutes before the test. Four groups were used to test three different doses: one control group treated with the vehicle, and one group for the three doses.
N=10; *** p<0.005 (Dunnett test).

**Q.** COc1cc2c(cc1OC)N(C)C(=O)CN=C2c1cccc(C(N)=O)c1 [Compound 5a, 3-(7,8-dimethoxy-1-methyl-2-oxo-2,3-dihydro-1H-1,4-benzodiazepin-5-yl)-benzamide] was tested. Which inhibition at 10 µM (PDE5) did it give?
**A.** 17.6%

**Q.** What about the IC50 (PDE2) of the same compound?
**A.** 1500 nM

**Q.** And the “time spent in the light compartment” value (mice [1])?
**A.** significantly more time in the light compartment

**Q.** And the total immobility time (mice [2])?
**A.** shorter immobility time

Reference: patent publication US20060128695A1, “Cyclic nucleotide phosphodiesterase inhibitors, preparation and uses” (NEURO3D, priority 2002, published 2006)
